Target: Factor D (Homo sapiens (Human), UniProt P00746)
Test: Factor D esterolytic assay (Z-Lys-SBzl substrate, DTNB, 405 nm)
Type: biochemical
Settings: Z-Lys-SBzl 1.29 mM, pH 7.5, 10% DMSO, tested a minimum of three times, read-out: Measured Ki (IC50) Value for Compounds: IC50
In short: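 Thioester hydrolysis (Z-Lys-SBzl, 1.29 mM) by human Factor D ([…]) detected through DTNB color at 405 nm over 600 sec, minus 690 nm background. Buffer: 100 mM HEPES pH 7.5, 500 mM NaCl, 10% DMSO; optional room-temperature preincubation before substrate. IC50 derived from percent rate inhibition; at least three runs.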

Factor D, sequence (P00746 26-253): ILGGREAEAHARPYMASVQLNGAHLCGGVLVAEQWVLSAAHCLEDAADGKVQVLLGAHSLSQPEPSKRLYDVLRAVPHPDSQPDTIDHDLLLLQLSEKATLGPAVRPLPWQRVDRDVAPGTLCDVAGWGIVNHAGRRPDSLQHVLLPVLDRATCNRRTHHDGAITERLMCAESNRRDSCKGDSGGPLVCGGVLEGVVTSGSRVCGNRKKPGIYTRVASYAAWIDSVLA

SMILES	IC50 [µM]
COCc1cc2cc(COc3cc(OC)ccc3CC(=O)O)cc(-c3ccnc(CN)c3)c2o1 [Compound 472b, 2-(2-((7-(2-(aminomethyl)pyridin-4-yl)-2-(methoxymethyl)benzofuran-5-yl)methoxy)-4-methoxyphenyl)acetic acid]	< 1
NCc1cccc(-c2c(F)c(COc3ccccc3CC(=O)O)cc3ccoc23)c1 [Compound 473e, 2-(2-((7-(3-(aminomethyl)phenyl)-6-fluorobenzofuran-5-yl)methoxy)phenyl)acetic acid]	< 1
CC(C)n1ccc2c(-c3cccc(CN)c3)cc(COc3ccc(F)cc3CC(=O)O)cc21 [Compound 474c, 2-(2-((4-(3-(aminomethyl)phenyl)-1-isopropyl-1H-indol-6-yl)methoxy)-5-fluorophenyl)acetic acid]	< 1
COc1ccc(OCc2cc(-c3cccc(CN)c3F)c3ccn(C(C)C)c3c2)c(CC(=O)O)c1 [Compound 475g, 2-(2-((4-(3-(aminomethyl)-2-fluorophenyl)-1-isopropyl-1H-indol-6-yl)methoxy)-5-methoxyphenyl)acetic acid]	< 1
COc1cccc(CC(=O)O)c1OCc1cc(-c2cccc(CN)c2)c2occc2c1 [Compound 476f, 2-(2-((7-(3-(aminomethyl)phenyl)benzofuran-5-yl)methoxy)-3-methoxyphenyl)acetic acid]	< 1
COCc1cc2cc(COc3cc(F)ccc3CC(=O)O)cc(-c3cccc(CN)c3)c2o1 [Compound 477c, 2-(2-((7-(3-(aminomethyl)phenyl)-2-(methoxymethyl)benzofuran-5-yl)methoxy)-4-fluorophenyl)acetic acid]	< 1
COCc1cc2cc(COc3cc(F)ccc3CC(=O)O)cc(-c3cccc(CN)c3F)c2o1 [Compound 478b, 2-(2-((7-(3-(aminomethyl)-2-fluorophenyl)-2-(methoxymethyl)benzofuran-5-yl)methoxy)-4-fluorophenyl)acetic acid]	< 1
CC(=O)c1ccc(CC(=O)O)c(OCc2cc(-c3cccc(CN)c3F)c3occc3c2)c1 [Compound 479d, 2-(4-acetyl-2-((7-(3-(aminomethyl)-2-fluorophenyl)benzofuran-5-yl)methoxy)phenyl)acetic acid]	< 1
COc1ccc(CC(=O)O)c(OCc2cc(-c3cccc(CN)c3)c3oc(F)cc3c2)c1 [Compound 480c, 2-(2-((7-(3-(aminomethyl)phenyl)-2-fluorobenzofuran-5-yl)methoxy)-4-methoxyphenyl)acetic acid]	< 1
COc1ccc(CC(=O)O)c(OCc2cc(-c3cccc(CN)c3F)c3oc(F)cc3c2)c1 [Compound 481b, 2-(2-((7-(3-(aminomethyl)-2-fluorophenyl)-2-fluorobenzofuran-5-yl)methoxy)-4-methoxyphenyl)acetic acid]	< 1
COc1ccc(CC(=O)O)c(OCc2cc(-c3ccnc(CN)c3)c3occc3c2)c1 [Compound 482b, 2-(2-((7-(2-(aminomethyl)pyridin-4-yl)benzofuran-5-yl)methoxy)-4-methoxyphenyl)acetic acid]	< 1
COc1ccc(CC(=O)O)c(OCc2cc(-c3ccnc(CN)c3F)c3oc(F)cc3c2)c1 [Compound 483c, 2-(2-((7-(2-(aminomethyl)-3-fluoropyridin-4-yl)-2-fluorobenzofuran-5-yl)methoxy)-4-methoxyphenyl)acetic acid]	< 1
NCc1cccc(-c2cc(COc3cc(F)ccc3CC(=O)O)c(F)c3ccoc23)c1 [Compound 484c, 2-(2-((7-(3-(aminomethyl)phenyl)-4-fluorobenzofuran-5-yl)methoxy)-4-fluorophenyl)acetic acid]	< 1
NCc1cccc(-c2cc(COc3cc(F)ccc3CC(=O)O)c(F)c3ccoc23)c1F [Compound 485b, 2-(2-((7-(3-(aminomethyl)-2-fluorophenyl)-4-fluorobenzofuran-5-yl)methoxy)-4-fluorophenyl)acetic acid]	< 1
NCc1cccc(-c2cc(COc3cc(F)ccc3CC(=O)O)cc3c(C(F)(F)F)coc23)c1 [Compound 486c, 2-(2-((7-(3-(aminomethyl)phenyl)-3-(trifluoromethyl)benzofuran-5-yl)methoxy)-4-fluorophenyl)acetic acid]	< 1
NCc1cccc(-c2cc(COc3cc(F)ccc3CC(=O)O)cc3c(C(F)(F)F)coc23)c1F [Compound 487b, 2-(2-((7-(3-(aminomethyl)-2-fluorophenyl)-3-(trifluoromethyl)benzofuran-5-yl)methoxy)-4-fluorophenyl)acetic acid]	< 1
COc1ccc(CC(=O)O)c(OCc2cc(-c3cccc(CN)c3)c3occ(C(F)(F)F)c3c2)c1 [Compound 488c, 2-(2-((7-(3-(aminomethyl)phenyl)-3-(trifluoromethyl)benzofuran-5-yl)methoxy)-4-methoxyphenyl)acetic acid]	< 1
COc1ccc(CC(=O)O)c(OCc2cc(-c3cccc(CN)c3F)c3occ(C(F)(F)F)c3c2)c1 [Compound 489b, 2-(2-((7-(3-(aminomethyl)-2-fluorophenyl)-3-(trifluoromethyl)benzofuran-5-yl)methoxy)-4-methoxyphenyl)acetic acid]	< 1

Results, then the compound that gave them:

IC50 [µM]	SMILES
< 1	NCc1nccc(-c2cc(COc3cc(F)ccc3CC(=O)O)cc3c(C(F)(F)F)coc23)c1F [Compound 490c, 2-(2-((7-(2-(aminomethyl)-3-fluoropyridin-4-yl)-3-(trifluoromethyl)benzofuran-5-yl)methoxy)-4-fluorophenyl)acetic acid]
< 1	NCc1cc(-c2cc(COc3cc(F)ccc3CC(=O)O)cc3c(C(F)(F)F)coc23)ccn1 [Compound 491b, 2-(2-((7-(2-(aminomethyl)pyridin-4-yl)-3-(trifluoromethyl)benzofuran-5-yl)methoxy)-4-fluorophenyl)acetic acid]
< 1	COc1ccc(CC(=O)O)c(OCc2cc(-c3ccnc(CN)c3)c3oc(F)cc3c2)c1 [Compound 492b, 2-(2-((7-(2-(aminomethyl)pyridin-4-yl)-2-fluorobenzofuran-5-yl)methoxy)-4-methoxyphenyl)acetic acid]
< 1	COc1ccc(OCc2cc(-c3cccc(CN)c3)c3ccn(C(C)C)c3c2)c(CC(=O)O)c1 [Compound 493b, 2-(2-((4-(3-(aminomethyl)phenyl)-1-isopropyl-1H-indol-6-yl)methoxy)-5-methoxyphenyl)acetic acid]
< 1	CC(C)n1ccc2c(-c3cccc(CN)c3F)cc(COc3ccc(F)cc3CC(=O)O)cc21 [Compound 494b, 2-(2-((4-(3-(aminomethyl)-2-fluorophenyl)-1-isopropyl-1H-indol-6-yl)methoxy)-5-fluorophenyl)acetic acid]
< 1	CC(C)n1ccc2c(-c3ccnc(CN)c3F)cc(COc3cc(F)ccc3CC(=O)O)cc21 [Compound 495d, 2-(2-((4-(2-(aminomethyl)-3-fluoropyridin-4-yl)-1-isopropyl-1H-indol-6-yl)methoxy)-4-fluorophenyl)acetic acid]
< 1	CC(C)n1ccc2c(-c3ccnc(CN)c3)cc(COc3cc(F)ccc3CC(=O)O)cc21 [Compound 496c, 2-(2-((4-(2-(aminomethyl)pyridin-4-yl)-1-isopropyl-1H-indol-6-yl)methoxy)-4-fluorophenyl)acetic acid]
< 1	CC(C)n1ccc2c(-c3ccnc(CN)c3)cc(COc3ccc(F)cc3CC(=O)O)cc21 [Compound 497d, 2-(2-((4-(2-(aminomethyl)pyridin-4-yl)-1-isopropyl-1H-indol-6-yl)methoxy)-5-fluorophenyl)acetic acid]
< 1	COc1ccc(CC(=O)O)c(OCc2cc(-c3ccnc(CN)c3F)c3occ(C(F)(F)F)c3c2)c1 [Compound 498c, 2-(2-((7-(2-(aminomethyl)-3-fluoropyridin-4-yl)-3-(trifluoromethyl)benzofuran-5-yl)methoxy)-4-methoxyphenyl)acetic acid]
< 1	COc1ccc(CC(=O)O)c(OCc2cc(-c3ccnc(CN)c3)c3occ(C(F)(F)F)c3c2)c1 [Compound 499b, 2-(2-((7-(2-(aminomethyl)pyridin-4-yl)-3-(trifluoromethyl)benzofuran-5-yl)methoxy)-4-methoxyphenyl)acetic acid]
< 1	NCc1cccc(-c2cc(COc3ccc(F)cc3CC(=O)O)cc3c(C(F)(F)F)coc23)c1 [Compound 500c, 2-(2-((7-(3-(aminomethyl)phenyl)-3-(trifluoromethyl)benzofuran-5-yl)methoxy)-5-fluorophenyl)acetic acid]
< 1	NCc1cccc(-c2cc(COc3ccccc3CC(=O)O)cc3[nH]c(C(F)(F)F)cc23)c1F [Compound 501f, 2-(2-((4-(3-(aminomethyl)-2-fluorophenyl)-2-(trifluoromethyl)-1H-indol-6-yl)methoxy)phenyl)acetic acid]
< 1	NCc1cccc(-c2cc(COc3c(F)cccc3CC(=O)O)cc3ccoc23)c1F [Compound 502c, 2-(2-((7-(3-(aminomethyl)-2-fluorophenyl)benzofuran-5-yl)methoxy)-3-fluorophenyl)acetic acid]
< 1	NCc1cc(-c2cc(COc3cc(F)ccc3CC(=O)O)c(F)c3ccoc23)ccn1 [Compound 503c, 2-(2-((7-(2-(aminomethyl)pyridin-4-yl)-4-fluorobenzofuran-5-yl)methoxy)-4-fluorophenyl)acetic acid]
< 1	NCc1cc(-c2cc(COc3c(F)cccc3CC(=O)O)cc3ccoc23)ccn1 [Compound 504c, 2-(2-((7-(2-(aminomethyl)pyridin-4-yl)benzofuran-5-yl)methoxy)-3-fluorophenyl)acetic acid]
< 1	CC(=O)c1ccc(CC(=O)O)c(OCc2cc(-c3ccnc(CN)c3F)c3occc3c2)c1 [Compound 505d, 2-(4-acetyl-2-((7-(2-(aminomethyl)-3-fluoropyridin-4-yl)benzofuran-5-yl)methoxy)phenyl)acetic acid]
